# Laboratory results as given in patent publication US20020193351A1, “Fungicidal and bactericidal compositions for plants containing phosphonate and phosphate salts, metal chelates, and derivatives thereof” (priority 1996, published 2002).
# Read-outs that look alike come from different tables or passages of the source.
# Assays:
# [1] = system: Citrus Greasy Spot perithecia; assay: Citrus Greasy Spot perithecia count on Valencia orange leaves (Example 2); assay type: in vivo, Mycosphaerella citri; settings: for #PERITHECIA (Number of Perithecia Per 5 MM Field at 2.5×, Mean of Three Observations): applied mid-July, leaves harvested approximately 4 months later
# Experimental: In the present Example, fungicides were again tested on “Valencia” oranges except the effect of various fungicides on perithecia was tested.
# Twenty mature leaves (from the spring flush) per replicate were harvested approximately 4 months later and placed under greenhouse conditions and alternately wetted and dried to simulate natural defoliation and weathering.
# These conditions, in turn, cause the fungus to sporulate by the formation of perithecia (spore production body of fungus). The […] were counted as a means of measuring the fungicidal activity of the treatments.
# Number of Perithecia Per 5 MM Field at 2.5×—Mean of Three Observations
# As used herein, a, b, c, and ab indicate statistical significance using Duncan's multiple range test. In interpreting the data, a different notation, e.g. b versus ab, means there was a statistically significant difference in the results. A difference in data of samples with the same letter notation was not statistically significant.
# [2] = system: Oak Leaf Blister (Taphrina Caerulescens); assay: Oak Leaf Blister control on laurel oaks (Example 5); assay type: in vivo; settings: for DISEASE INDEX: applications in July approximately 3 weeks apart, rated in August, index 1 = no disease to 5 = dead foliage
# Description: Applications were made in July approximately 3 weeks apart and rated in August a month later. See data below.
# plants = settings: foliar applications; cited from earlier work
# [3] = system: Phytophthora infestans (Genotype US-8, Matingtype A2); assay type: in vivo; settings: for LESIONS PER PLANT / NO. INFECTED LEAFLETS PER PLANT / % LATE BLIGHT: potato, read seven days after inoculation; for % LATE BLIGHT: two treatments 7 days apart, inoculated 7 days later
# [4] = system: Phytophthora infestans (Genotype US-17, Matingtype A1); assay type: in vivo; settings: tomato; 1% v/v; read seven days after inoculation
# Alternaria dauci = assay: Carrot/Alternaria fungicide trial (Example 10); settings: for AVERAGE % OF INFECTION 04/23/96 / AVERAGE % OF INFECTION 04/05/96: 8 applications; for AVERAGE % OF INFECTION 04/23/96: 25 days after last application; for AVERAGE % OF INFECTION 04/05/96: seven days after last treatment; for Alternaria control on carrots, verdict: Example 10, comment on the table
# Experimental: In the present example, carrots were inoculated with the Alternaria fungus. The carrots were then treated with the below listed fungicidal compositions. Also a control test was conducted. The percentage of the fungicide in the solution is also listed below along with the results. Plot size for testing was a single row of 25 feet by 4 repetitions in an RCB design. The fungicide was applied eight (8) times with the carrots then examined for infection seven (7) days and twenty-five (25) days after the last fungicidal treatment.
# PLOT SIZE: Single Row×25 ft.×4 reps in a RCB design. Application dates: 2/2, 9,15,22,3/8,14,22, and 28. Rated 4/5 and 4/23/96
# NOTE: Second rating was 25 days after last fungicide application. Plots were inoculated with Alternaria dauci.
# Erwinia chrysanthemi = assay: Erwinia control on Hibiscus cuttings, foliar spray (Example 6); assay type: in vivo; settings: for AVERAGE % INFECTION: rated one week later
# Description: Treatments were allowed to dry for one hour and then placed in a commercial propagation bed under intermittent mist and rated for bacterial (Erwinia chrysanthemi) infection one week later.
# Erwinia = Erwinia control on Hibiscus rooted cuttings, dip and spray (Example 7); assay type: in vivo, Erwinia chrysanthemi; settings: for AVERAGE % INFECTION: dip, then foliar spray 7 days later
# Experimental: A follow-up experiment to Example 6 was conducted on rooted cuttings which were dipped as they were removed from the propagation bed and foliarly sprayed 7 days later after being potted. […] Potted cuttings had not received any previous bactericide treatments prior to potting.
# [5] = system: bacterial spots on pepper plants; assay type: in vivo; settings: weekly applications; g AI/liter: copper+mancozeb 2+1, Cu-EDDHA 0.1, CGA-143268 1.0, other CGA compounds 0.25 and 0.5
# Xanthomonas campestris = assay: Xanthomonas leaf spot of croton Codiaeum variegatum (Example 9); assay type: in vivo; settings: for AVERAGE % OF INFECTION: 3 weekly foliar applications after inoculation
# Experimental: Croton plants inoculated with Xanthomonas were tested with various fungicides. […] AI/100 gal. and Kocide 101 at 7.4 lbs. AI/Acre (A) were applied as foliar applications to croton (Codiaeum variegatum) previously inoculated with Xanthomonas campestris a day earlier. Treatments were assigned in a RCB design and replicated 10 times with single pots. Treatments were applied 3 times on a weekly schedule and evaluated at 7 and 14 days following the last application. See data below.
# [6] = 1 gal. (0.55 wt. % AI)/100 gallons
# [7] = 1 gal. (0.53 wt. % AI)/100 gallons
compound,measurement,setting,value
"CC1COC(Cn2cncn2)(c2ccc(Oc3ccc(Cl)cc3)cc2Cl)O1 (stereo not shown) [Difenconazole, 1-2[2-[4-(4-chlorophenoxy)-2-chlorophenyl-(4-methyl-1,3-dioxolan-2-l)-methyl]]-1H-1 ,2,4-triazole, reference compound]","#PERITHECIA (Number of Perithecia Per 5 MM Field at 2.5×, Mean of Three Observations)",[1]; rate 100 gm AI/100 gallons,5.32 ab
same,"#PERITHECIA (Number of Perithecia Per 5 MM Field at 2.5×, Mean of Three Observations)",[1]; rate 200 gm AI/100 gallons,11.57 ab
same,DISEASE INDEX,[2]; 2 oz. product/100 gallons,2.25
"O=C([O-])CN(CCN(CC(=O)[O-])CC(=O)[O-])CC(=O)[O-].[Fe+3] [Fe-EDTA, Fe-EDTA (ethylenediaminetetraacetic acid)]",Phytotoxicity rankings of Fe chelates,plants,intermediate phytotoxic
"O=C([O-])CN(CCO)CCN(CC(=O)[O-])CC(=O)[O-].[Fe+3] [Fe-HEEDTA, Fe-HEEDTA (hydroxyethylethylenediaminetriacetic acid)]",Phytotoxicity rankings of Fe chelates,plants,most phytotoxic
O=[PH]([O-])[O-].[K+].[K+] [Sample K2HPO3],"Potato late blight control, verdict","[3]; Example 11, comment on the table",good results in controlling the blight
same,LESIONS PER PLANT,[3]; 1% v/v,2.4
same,NO. INFECTED LEAFLETS PER PLANT,[3]; 1% v/v,1.8
same,% LATE BLIGHT,[3]; 1% v/v,1.85%
same,LESIONS PER PLANT,[4],56.7
same,NO. INFECTED LEAFLETS PER PLANT,[4],21.5
same,AVERAGE % OF INFECTION 04/23/96,Alternaria dauci; [6],28.8%
same,AVERAGE % OF INFECTION 04/05/96,Alternaria dauci; [6],18.7%
"O=P([O-])([O-])O.[K+].[K+] [Sample K2HPO4, dipotassium phosphate]",LESIONS PER PLANT,[3]; 1% v/v,41.4
same,NO. INFECTED LEAFLETS PER PLANT,[3]; 1% v/v,31.1
same,% LATE BLIGHT,[3]; 1% v/v,18.45%
same,LESIONS PER PLANT,[4],74.8
same,NO. INFECTED LEAFLETS PER PLANT,[4],36.5
same,AVERAGE % OF INFECTION 04/23/96,Alternaria dauci; [7],8.2%
same,AVERAGE % OF INFECTION 04/05/96,Alternaria dauci; [7],6.9%
Fe-DTPA (di-ethylenetriaminepentaacetic acid),Phytotoxicity rankings of Fe chelates,plants,less phytotoxic
Sodium cupric ethylenediamine-di-o-hydroxyphenylacetic acid [Cu-EDDHA],"Perithecia reduction, verdict","[1]; Example 2, comment on the table",good results
same,"#PERITHECIA (Number of Perithecia Per 5 MM Field at 2.5×, Mean of Three Observations)",[1]; rate 0.2 lbs. AI/100 gallons,3.24 b
same,"#PERITHECIA (Number of Perithecia Per 5 MM Field at 2.5×, Mean of Three Observations)",[1]; rate 0.4 lbs. AI/100 gallons,5.93 ab
same,DISEASE INDEX,[2]; 8 oz. product/100 gallons,2.8
same,"Oak leaf blister repression, verdict","[2]; Example 5, comment on the table",suitable disease repression
same,"Control of Erwinia on Hibiscus, verdict",Erwinia chrysanthemi; 0.2 lb. AI,excellent control
same,AVERAGE % INFECTION,Erwinia chrysanthemi; 0.2 lb. AI Cu/100 gallons foliar spray,6%
same,AVERAGE % INFECTION,Erwinia chrysanthemi; 0.4 lb. AI Cu/100 gallons foliar spray,8%
same,AVERAGE % INFECTION,Erwinia; 0.2 LB. AI/100 gallons,19%
same,"Control of Erwinia on Hibiscus, verdict",Erwinia; 0.2 lb. AI,excellent control
same,AVERAGE % INFECTION,Erwinia; 0.8 LB. AI/100 gallons,32%
same,Disease severity ranking 12 days after the last (eighth) application,[5],exhibited some control
same,Disease severity ranking after four applications,[5],CGA-143268 which was equal to copper plus mancozeb and Cu-EDDHA in activity
same,AVERAGE % OF INFECTION,Xanthomonas campestris; 26 ml (.2 lb.) AI/100 gallons,.6%
same,AVERAGE % OF INFECTION,Xanthomonas campestris; 52 ml (.4 lb.) AI/100 gallons,1.0%
same,Control of Xanthomonas leaf spot of Codiaeum,"Xanthomonas campestris; compared to inoculated and noninoculated controls, Cu-EDDHA at the lower rate",control equal to the noninoculated control treatment
same,LESIONS PER PLANT,[3]; 0.2 lb. AI/acre,35.3
same,NO. INFECTED LEAFLETS PER PLANT,[3]; 0.2 lb. AI/acre,26.9
same,% LATE BLIGHT,[3]; 0.2 lb. AI/acre,12.30%
same,AVERAGE % OF INFECTION 04/23/96,Alternaria dauci; 0.2 lb AI/100 gallons,11.6%
same,AVERAGE % OF INFECTION 04/05/96,Alternaria dauci; 0.2 lb AI/100 gallons,8.8%
same,"Alternaria control on carrots, verdict",Alternaria dauci,effectively limited percentage of fungicidal infection
iron ethylenediamine-di-o-hydroxyphenylacetic acid [Fe-EDDHA],AVERAGE % OF INFECTION 04/23/96,Alternaria dauci; 0.2 lb AI/100 gallons,12.9%
same,AVERAGE % OF INFECTION 04/05/96,Alternaria dauci; 0.2 lb AI/100 gallons,12.7%
same,"Alternaria control on carrots, verdict",Alternaria dauci,effective fungicides
